{
  "source": "patent US20250221949A1",
  "about": "“ANTISEPTIC, ANTISEBORRHEIC, EXFOLIATING COMPOSITION TO REMOVE OR PREVENT ACNE” (Excalibur Pharmaceuticals, Inc., priority 2012, published 2025)",
  "origin": "cited, not measured here",
  "test_system": "Candida albicans, some Trichomonas, Staphylococcus aureus; Escherichia coli, Salmonella typhi, S. paratyphi, Shigella dysenterica and Vibro cholera species",
  "details": "background statement",
  "data": [
    {"smiles": "C=CCS[S+]([O-])CC=C", "note": "(stereo not shown) [DDO, diallyl disulphide oxide]", "values": [
      {"measurement": "in vitro activity against microorganisms (in words)", "result": "has in vitro activity"}
    ]}
  ]
}
